Source: patent US11795511B2, “Methods and compositions for the prognosis and treatment of relapsed leukemia” (NEW YORK UNIVERSITY, priority 2012, dated 2023)

Experiments:
Reh cells [1] = test: Apoptosis assay (Annexin V-PE / 7-AAD, flow cytometry) of Reh cells transduced with wild-type or mutant cN-II after drug treatment; type: cell-based; conditions: Reh cells transduced with lentiviruses encoding wild-type or mutant (Arg238Trp, Arg367Gln or Ser445Phe) cN-II; incubation 24-72 h
Experimental: Cell Culture and Drug Treatment. Reh cells obtained from the American Type Culture Collection (ATCC) were grown in RPMI1640 supplemented with 10% FBS, 10 mM HEPES and 1% penicillin-streptomycin under 5% CO2 at 37° C. 293T cells (ATCC) were grown in DMEM supplemented with 10% FBS and 1% penicillin-streptomycin under 5% CO2 at 37° C. 6-mercaptopurine, 6-thioguanine, cytarabine, doxorubicin, gemcitabine and prednisolone (Sigma) were serially diluted in RPMI before use at the indicated concentrations.
Transient Transfection and Lentivirus Gene Transfer. NT5C2 DNA for wild-type and mutant (Arg238Trp, Arg367Gln and Ser445Phe) was cloned into the lentiviral vector pLenti using SalI and XbaI restriction sites. All plasmids were sequence verified. cDNA constructs were transfected into 293T cells along with helper plasmids using the calcium phosphate method to produce replication-defective virus. Supernatant was harvested 48 h later and used to transduce Reh cells (whose NT5C2 sequence was verified as wild type) supplemented with […] polybrene (Sigma). Virus-containing medium was replaced 24 h after infection. Cells were monitored 72 h after infection for infection efficiency by the detection of GFP-positive cells using a FACScan (BD). Infected cells were plated (200,000 cells per well in […] of medium) in triplicate for drug treatment with 6-mercaptopurine, 6-thioguanine, cytarabine, doxorubicin, gemcitabine and prednisolone (Sigma). Cells were incubated for 24-72 h and then assayed for apoptosis by Annexin V-PE and 7-AAD staining (Annexin V-PE Apoptosis Detection kit, BD Pharmingen) followed by flow cytometry analysis using a FACScan. The percentages of cells positive and negative for Annexin V and/or 7-AAD staining were analyzed with FlowJo software (version 7.6.1, Tree Star). Data were plotted relative to results obtained with no chemotherapy treatment, and error bars represent the standard deviation from three independent determinations. Cells (1×10^6) were harvested for protein at the time of plating. Briefly, cells were pelleted at 200 g for 5 min and resuspended in […] of RIPA buffer with 1× protease inhibitors (GE Healthcare), incubated on ice for 15 min and centrifuged at 15,000 g for 10 min at 4° C. Protein was subjected to electrophoresis on 9% SDS-Tris acrylamide gels and transferred to PVDF membranes. Membranes were incubated with a 1:5,000 dilution of antibody to Flag (F3165, Sigma), incubated with a 1:10,000 dilution of HRP-conjugated secondary antibody to mouse (GE Healthcare) and developed using ECL (GE Healthcare).

Reh cells [2] = test: HPLC determination of thioguanine nucleotides in Reh cells after 6-mercaptopurine treatment; type: cell-based; conditions: 6-mercaptopurine treatment for 24 h
Experimental: HPLC determination of nucleotides. Reh cells were transiently infected with NT5C2 constructs. After infection, cells were treated with 10 mM 6-mercaptopurine for 24 h in duplicate. After 24 h, 5×10^6 cells were washed twice with PBS, and cell pellets were frozen at −80° C. Intraceullar accumulation of thioguanine nucleotides (6-mercaptopurine active metabolites) was determined by a reversed-phase liquid chromatography assay as described previously (Dervieux et al., “HPLC Determination of Thiopurine Nucleosides and Nucleotides In Vivo in Lymphoblasts Following Mercaptopurine Therapy,” Clin. Chem. 48: 61-68 (2002), which is hereby incorporated by reference in its entirety).

cN-II = cN-II (Homo sapiens, UniProt P49902); conditions: cited from earlier work
cN-II, sequence (P49902 whole entry): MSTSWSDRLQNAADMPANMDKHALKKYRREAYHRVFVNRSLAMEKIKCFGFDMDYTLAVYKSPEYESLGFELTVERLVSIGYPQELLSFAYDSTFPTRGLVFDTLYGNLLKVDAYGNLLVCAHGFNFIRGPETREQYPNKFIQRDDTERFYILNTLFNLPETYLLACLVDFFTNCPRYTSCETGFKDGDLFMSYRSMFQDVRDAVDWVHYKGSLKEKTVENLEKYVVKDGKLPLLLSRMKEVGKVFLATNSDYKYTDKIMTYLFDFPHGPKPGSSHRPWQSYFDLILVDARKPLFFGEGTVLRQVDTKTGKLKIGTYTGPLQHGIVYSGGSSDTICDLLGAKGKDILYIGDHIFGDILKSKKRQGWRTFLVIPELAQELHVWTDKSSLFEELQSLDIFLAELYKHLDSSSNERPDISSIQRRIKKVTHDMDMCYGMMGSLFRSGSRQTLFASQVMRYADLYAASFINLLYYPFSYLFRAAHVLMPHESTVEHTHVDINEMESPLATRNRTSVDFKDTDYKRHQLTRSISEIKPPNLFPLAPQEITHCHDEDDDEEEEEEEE

SMILES | resistance to apoptosis of cells expressing mutant forms of cN-II compared to cells expressing wild-type protein (Reh cells [1]) | level of thioguanine nucleotides in cells expressing mutant cN-II compared to control cells expressing wild-type protein or GFP (Reh cells [2]) | hydrolysis by the purified enzyme (cN-II)
Sc1ncnc2nc[nH]c12 [6-mercaptopurine] | significantly more resistant to apoptosis | reduction in the level of thioguanine nucleotides | –
Nc1nc2nc[nH]c2c(=S)[nH]1 [6-thioguanine] | significantly more resistant to apoptosis | – | –
Nc1ccn([C@@H]2O[C@H](COP(=O)(O)O)[C@@H](O)[C@@H]2O)c(=O)n1 [araC monophosphate] | – | – | does not hydrolyze
Nc1ccn([C@@H]2O[C@H](CO)[C@@H](O)[C@@H]2O)c(=O)n1 [cytarabine] | no resistance was seen | – | –
COc1cccc2c1C(=O)c1c(O)c3c(c(O)c1C2=O)C[C@@](O)(C(=O)CO)C[C@@H]3O[C@H]1C[C@H](N)[C@H](O)[C@H](C)O1 [doxorubicin] | no resistance was seen | – | –
Nc1ccn([C@@H]2O[C@H](CO)[C@@H](O)C2(F)F)c(=O)n1 [gemcitabine] | no resistance was seen | – | –
C[C@]12C=CC(=O)C=C1CC[C@@H]1[C@@H]2[C@@H](O)C[C@@]2(C)[C@H]1CC[C@]2(O)C(=O)CO [prednisolone] | no resistance was seen | – | –
